Test results reported in PMC3542614 (Cell Death & Disease, 2012).

What was measured:
[1] = target: T1, Bcl-B:Bim complex (Homo sapiens, UniProt Q9HD36, C138S/C30S); experiment: SPR competition assay: displacement of Bim-BH3 from the Bcl-B:6His-Bim complex; format: binding; conditions: BH3 peptides between 1.25 and 40 μM
T1 sequence (Q9HD36 12-177 C30S/C138S): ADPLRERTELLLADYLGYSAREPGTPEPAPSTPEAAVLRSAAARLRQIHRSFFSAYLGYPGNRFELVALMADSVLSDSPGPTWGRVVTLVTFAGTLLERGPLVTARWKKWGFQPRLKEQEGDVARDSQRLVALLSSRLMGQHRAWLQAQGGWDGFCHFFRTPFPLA

[2] = test system: Bcl-B; conditions: cited from earlier work
[3] = target: Bcl-BΔC27 (C-terminally truncated Bcl-B, residues A2–A167, cysteines 20 and 128 mutated to serine) (human); experiment: SPR

Row | Compound | Displacement of Bim from the Bcl-B:Bim complex [1] | Binding to Bcl-B [2] | IC50 [3]
1 | CN(C)CC[C@H](CSc1ccccc1)Nc1ccc(S(=O)(=O)NC(=O)c2ccc(N3CCN(Cc4ccccc4-c4ccc(Cl)cc4)CC3)cc2)cc1[N+](=O)[O-] [ABT-737] | failed to displace Bim | does not bind Bcl-B | –
2 | Bax-BH3 peptide | – | – | 6.6 µM
3 | Bik-BH3 peptide | – | – | 113 µM
